As usually defined, the IC50 is the concentration that inhibits the measured activity by half.

Structures are written as SMILES.

This assay addresses T1, USP25 (USP25-His6) (Homo sapiens, UniProt Q9UHP3).
T1 construct: His6 (C); purchased Boston Biochem E-546
T1 sequence (Q9UHP3 1-1055): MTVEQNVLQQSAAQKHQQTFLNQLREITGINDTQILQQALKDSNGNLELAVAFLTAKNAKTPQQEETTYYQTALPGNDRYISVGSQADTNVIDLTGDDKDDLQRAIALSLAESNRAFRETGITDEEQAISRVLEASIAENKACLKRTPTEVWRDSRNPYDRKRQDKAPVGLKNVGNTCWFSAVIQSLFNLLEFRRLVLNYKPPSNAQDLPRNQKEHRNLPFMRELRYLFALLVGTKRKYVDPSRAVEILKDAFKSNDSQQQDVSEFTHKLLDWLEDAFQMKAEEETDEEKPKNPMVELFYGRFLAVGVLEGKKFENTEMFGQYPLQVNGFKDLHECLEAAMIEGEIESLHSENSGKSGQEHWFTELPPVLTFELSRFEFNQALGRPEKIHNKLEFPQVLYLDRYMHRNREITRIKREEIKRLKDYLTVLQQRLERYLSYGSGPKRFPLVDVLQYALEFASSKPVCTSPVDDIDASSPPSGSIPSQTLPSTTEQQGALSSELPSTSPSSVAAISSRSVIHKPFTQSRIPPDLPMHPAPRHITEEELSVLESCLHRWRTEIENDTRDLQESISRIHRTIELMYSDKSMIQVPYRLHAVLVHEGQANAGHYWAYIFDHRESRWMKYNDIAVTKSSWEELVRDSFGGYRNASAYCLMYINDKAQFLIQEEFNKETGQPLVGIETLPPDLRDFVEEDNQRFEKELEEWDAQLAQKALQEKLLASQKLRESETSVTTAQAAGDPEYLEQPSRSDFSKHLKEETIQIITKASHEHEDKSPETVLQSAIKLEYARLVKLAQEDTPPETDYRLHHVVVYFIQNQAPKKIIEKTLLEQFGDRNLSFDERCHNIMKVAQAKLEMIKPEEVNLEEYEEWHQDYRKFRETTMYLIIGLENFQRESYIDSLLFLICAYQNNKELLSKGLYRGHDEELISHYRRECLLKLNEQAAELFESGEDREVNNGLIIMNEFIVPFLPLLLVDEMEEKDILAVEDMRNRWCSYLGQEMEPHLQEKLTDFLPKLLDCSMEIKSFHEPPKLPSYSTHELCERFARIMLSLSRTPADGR
As to the kind of experiment: Ubiquitin-Rhodamine 110 Assay for USP25 Activity, Example A-2. Format: biochemical. The note with it: USP25, 75 pM enzyme, 25 nM Ub-Rh110, 30 min preincubation; read-out: Assay A-2 (IC50 range). As for the experimental part: The assay was performed in a final volume of 9 μL in assay buffer containing 20 mM Tris-HCl (pH 8.0, (1M Tris-HCl, pH 8.0 solution; Corning 46-031-CM)), 3 mM BME (2-Mercaptoethanol; Sigma 63689-25ML-F), 0.03% BGG (0.22 μM filtered, Sigma, G7516-25G), and 0.01% Triton X-100 (Sigma, T9284-10L). Nanoliter quantities of 10-point, 3-fold serial dilution in DMSO was pre-dispensed into 1536 assay plates (Corning, #3724BC) for a final test concentration of 25 μM to 1.3 nM, top to lowest dose, respectively. Enzyme USP25, construct USP25-His6, (Boston Biochem E-546). Concentration and incubation times were optimized for the maximal signal-to-background while maintaining initial velocity conditions at a fixed substrate concentration. The final concentration of the enzyme in the assay was 75 pM. Final substrate (Ub-Rh110; Ubiquitin-Rhodamine 110, R&D Systems #U-555) concentration was 25 nM with [Ub-Rh110]<<Km. 3 μL of 2× enzyme was added to assay plates (pre-stamped with compound) preincubated with […] for 30 minutes and then 3 μL of 2×Ub-Rh110 was added to assay plates. Plates were incubated for 45 minutes at room temperature before addition of 3 μL of stop solution (final concentration of 10 mM citric acid (Sigma, 251275-500G)). Fluorescence was read on the Envision (Excitation at 485 nm and Emission at 535 nm; Perkin Elmer) or on the PheraSTAR (Excitation at 485 nm and Emission at 535 nm; BMG Labtech).
For assay formats Examples A-1a, A-1b, and A-2, data were reported as percent inhibition compared with control wells based on the following equation: % inh=1−((FLU−AveLow)/(AveHigh−AveLow)) where FLU=measured Fluorescence, AveLow=average Fluorescence of no enzyme control (n=16), and AveHigh=average Fluorescence of DMSO control (n=16). IC50 values were determined by curve fitting of the standard 4 parameter logistic fitting algorithm included in the Activity Base software package: IDBS XE Designer Model205. Data is fitted using the Levenburg Marquardt algorithm.

On to `CCn1ccc2cc(C(=O)NC[C@@H](C)c3cc(F)c(N4CCNCC4)cc3F)cnc21` (single isomer, unassigned) [Example 2-1], for which the IC50 lay within 200 to 2000 nM.
`CCn1ccc2cc(C(=O)NC[C@H](C)c3cc(F)c(N4CCNCC4)cc3F)cnc21` (single isomer, unassigned) [Example 2-2]: the IC50 fell in the range of 2000 to 10000 nM.
Take `CCn1ccc2cc(C(=O)NC[C@H](C)c3cc(F)c(N4CC5CCC(C4)N5)cc3F)cnc21` (single isomer, unassigned) [Example 2-3]: the IC50 lay within 200 to 2000 nM.
On to `CCn1ccc2cc(C(=O)NC[C@@H](C)c3cc(F)c(N4CC5CCC(C4)N5)cc3F)cnc21` (single isomer, unassigned) [Example 2-4], for which the IC50 lay within 200 to 2000 nM.
As for `CCn1ccc2cc(C(=O)NC[C@H](C)c3cc(F)c(N4CC5CCC(C4)N5)cc3F)nnc21` (single isomer, unassigned) [Example 4-2], the IC50 lay in the range of 200 to 2000 nM.
In the case of `CCn1ccc2cc(C(=O)NC[C@@H](C)c3cc(F)c(N4CC5CCC(C4)N5)cc3F)nnc21` (single isomer, unassigned) [Example 4-3], the IC50 lay in the range of 200 to 2000 nM.
Consider `CCn1ccc2cc(C(=O)NCCc3cc(F)c(N4CC5CCC(C4)N5)cc3F)cnc21` [Example 1-1, N-[2-(4-[3,8-diazabicyclo[3.2.1]octan-3-yl]-2,5-difluorophenyl)ethyl]-1-ethyl-1H-pyrrolo[2,3-b]pyridine-5-carboxamide], for which the IC50 lay in the range of 50 to 200 nM.
The figure for `O=C(NCCc1ccc(N2CCNCC2)cc1)c1cnc2[nH]ccc2c1` [Example 1-2, N-(4-(piperazin-1-yl)phenethyl)-1H-pyrrolo[2,3-b]pyridine-5-carboxamide] is 200 to 2000 nM; for `Cn1ccc2cc(C(=O)NCCc3ccc(N4CCNCC4)cc3)cnc21` [Example 1-3, 1-methyl-N-(4-(piperazin-1-yl)phenethyl)-1H-pyrrolo[2,3-b]pyridine-5-carboxamide] it is 200 to 2000 nM; for `CCn1ccc2cc(C(=O)NCCc3ccc(N4CCNCC4)cc3)cnc21` [Example 1-4, 1-ethyl-N-(4-(piperazin-1-yl)phenethyl)-1H-pyrrolo[2,3-b]pyridine-5-carboxamide] it is 200 to 2000 nM.
As to `Nc1c(C(=O)NCCc2ccc(N3CCNCC3)cc2)cnc2[nH]ccc12` [Example 1-5, 4-amino-N-(4-(piperazin-1-yl)phenethyl)-1H-pyrrolo[2,3-b]pyridine-5-carboxamide], the IC50 lay within 2000 to 10000 nM.
Next, `CCn1ccc2cc(C(=O)NCCc3ccc(N4CC5CCC(C4)N5)cc3)cnc21` [Example 1-6, N-(4-(3,8-diazabicyclo[3.2.1]octan-3-yl)phenethyl)-1-ethyl-1H-pyrrolo[2,3-b]pyridine-5-carboxamide]: 50 to 200 nM.
For `CCn1ccc2cc(C(=O)NCCc3cc(F)c(N4CCNCC4)cc3F)cnc21` [Example 1-7, N-(2,5-difluoro-4-(piperazin-1-yl)phenethyl)-1-ethyl-1H-pyrrolo[2,3-b]pyridine-5-carboxamide], the IC50 is 200 to 2000 nM.
As to `O=C(NCCc1ccc(N2CCNCC2)cc1)c1cnc2c(ccn2CC(F)(F)F)c1` [Example 1-8], the half-maximal inhibitory concentration (IC50) was 50 to 200 nM.
As for `CC(C)(O)Cn1ccc2cc(C(=O)NCCc3cc(F)c(N4CC5CCC(C4)N5)cc3F)cnc21` [Example 1-9, N-(4-(3,8-diazabicyclo[3.2.1]octan-3-yl)-2,5-difluorophenethyl)-1-(2-hydroxy-2-methylpropyl)-1H-pyrrolo[2,3-b]pyridine-5-carboxamide], the IC50 was above 10000 nM.
Consider `CCn1ccc2cc(C(=O)NCCc3ccc(N4CC5CCC(C4)N5)c(F)c3)cnc21` [Example 1-10, N-(4-(3,8-diazabicyclo[3.2.1]octan-3-yl)-3-fluorophenethyl)-1-ethyl-1H-pyrrolo[2,3-b]pyridine-5-carboxamide], for which the IC50 was 200 to 2000 nM.
Take `CCn1cc(Cl)c2cc(C(=O)NCCc3ccc(N4CCNCC4)cc3)cnc21` [Example 3-1, 3-Chloro-1-ethyl-N-[2-[4-(piperazin-1-yl)phenyl]ethyl]-1H-pyrrolo[2,3-b]pyridine-5-carboxamide]: the IC50 was 50 to 200 nM.
Turning to `O=C(NCCc1ccc(N2CCNCC2)cc1)c1cnc2[nH]cc(Cl)c2c1` [Example 3-2, 3-chloro-N-(4-(piperazin-1-yl)phenethyl)-1H-pyrrolo[2,3-b]pyridine-5-carboxamide], the IC50 was in the range of 2000 to 10000 nM.
Turning to `CCn1ccc2cc(C(=O)NCCc3cc(F)c(N4CC5CCC(C4)N5)cc3F)nnc21` [Example 4-1, N-[2-(4-[3,8-diazabicyclo[3.2.1]octan-3-yl]-2,5-difluorophenyl)ethyl]-7-ethyl-7H-pyrrolo[2,3-c]pyridazine-3-carboxamide], the 50% inhibitory concentration (IC50) lay in the range of 200 to 2000 nM.
As to `CCn1cc(Cl)c2cc(C(=O)NCCc3cc(F)c(N4CC5CCC(C4)N5)cc3F)nnc21` [Example 4-4, N-(4-(3,8-diazabicyclo[3.2.1]octan-3-yl)-2,5-difluorophenethyl)-5-chloro-7-ethyl-7H-pyrrolo[2,3-c]pyridazine-3-carboxamide], the IC50 lay within 50 to 200 nM.

For the origin of these results see patent publication US12252490B2, “Inhibiting deubiquitinase USP25 and USP28” (Valo Health, Inc., priority 2018, dated 2025).
